According to US7244755B2, “Hydroxypropylamines” (Pharmacia & Upjohn Company, priority 2001, dated 2007):

Compound: CCCN(CCC)C(=O)c1cc(C)cc(C(=O)N[C@@H](Cc2cc(F)cc(F)c2)[C@@H](O)CCN)c1 [Example 1, 5-amino-1,2,4,5-tetradeoxy-1-(3,5-difluorophenyl)-2-({3-[(dipropylamino)carbonyl]-5-methylbenzoyl}amino)-L-threo-pentitol]
- melting point: 61 to 72 °C
